# Results published in patent US11883491B2, “Compositions and methods for prevention and treatment of hearing loss” (ST. JUDE CHILDREN'S RESEARCH HOSPITAL, priority 2017, dated 2024).
# Legend:
# FVB mice [1] = assay: Toxicity (median lethal dose) in neonatal mice; type: in vivo, mouse; conditions: postnatal day 1 (P1) FVB mice, intraperitoneal (IP) injection; estimated
# Experimental: (§1) To further evaluate the use of an inhibitor of EGFR signaling in HC regeneration, the toxicity of AG1478 in neonatal and adult mice was assessed.
# FVB mice [2] = assay: Auditory brainstem response thresholds after transtympanic injection in adult mice; type: in vivo, mouse; conditions: adult (>P21) FVB mice, 10 μg transtympanic (TT) injection, 7 days after
# Experimental: as §1
# [3] = system: neonatal mouse cochlear explants; assay: Atoh1-induced hair cell conversion in Atoh1-transfected neonatal mouse cochlear explants; type: cell-based
# Experimental: Representative images show the immunostaining of cochlear explants transfected with Atoh1-IRES-GFP and treated with vehicle (FIGS. 1A and 1C) or 100 nM AG1478 (FIGS. 1B and 1D). Expression of hair cell marker Myo6 (↑) and Atoh1-transfected cells (GFP, ? ) are shown.
# Atoh1 is transfected (O/E) in all conditions.
# [4] = system: neonatal mouse cochlear explants; assay: Inhibitor alone: proliferation and differentiation of endogenous SCs and HCs in neonatal cochlear explants; type: cell-based; conditions: inhibitor by itself, after 7 days
# Source text: Atoh1, a transcription factor, can convert non-sensory supporting cells (SCs) to hair cells (HCs) in neonatal and juvenile mammalian cochleae (Izumikawa, et al. (2005) Nature Med. 11:271-6; Kelly, et al. (2012) J. Neurosci. 32:6699-710; Liu, et al. (2012) J. Neurosci. 32:6600-10). Ectopic expression of Atoh1 has been approved for clinical trials as a gene therapy. However, Atoh1-induced HC conversion is inefficient (<17%), incomplete (lacking mature HC markers), and age-dependent (no response in adult cochlea) (Izumikawa, et al. (2008) Hearing Res. 240:52-6; Liu, et al. (2012) J. Neurosci. 32:6600-10). Using RNA-seq analysis to compare the transcriptome of SCs, endogenous outer HCs (OHCS), and Atoh1-induced HCs (cHCs) in adult mouse cochleae, it was observed that the epidermal growth factor receptor (EGFR) signaling is enriched in SCs and cHCs using gene set enrichment analysis (GSEA). To validate the role of EGFR pathway ex vivo, neonatal mouse cochlear explants were treated with a potent EGFR inhibitor (AG1478). […] In addition, inhibitors targeting proteins downstream of EGFR signaling were tested including WP1066 (STAT3 inhibitor), LY 294002 (PI3K inhibitor), U0126 (MEK inhibitor), and U73122 (PLC inhibitor) at various doses above their respective EC50 values. […]
# HEI-OC1 cells [5] = assay: Protection against cisplatin-induced Caspase-3/7 activity / cell death in HEI-OC1 cells; type: cell-based, mouse; conditions: for IC50: Mus musculus, HEI-OC1 cells; for protection against cisplatin-induced cell death: HEI-OC1, screen of 75 kinase inhibitors
# Experimental: (§2) A screen of a library composed of 75 kinase inhibitors was conducted to identify inhibitors that protect against cisplatin-induced hair cell loss.
# mouse cochlear explants [6] = conditions: for protection against cisplatin-induced hair cell loss: cochlear explants, screen of 75 kinase inhibitors
# Experimental: as §2
# HEI-OC1 cells [7] = conditions: CELLTITER-GLO
# Experimental: as §2
# mouse cochlear explants [8] = assay: tissue or blood; conditions: read-out: IC50, protection against cisplatin-induced hair cell loss
# Experimental: as §2
smiles,measurement,setting,value
"COc1cc2ncnc(Nc3cccc(Cl)c3)c2cc1OC [AG1478, AG 1478]",median lethal dose (LD50),FVB mice [1],30 mg/kg
same,changes in auditory brainstem response (ABR) thresholds,FVB mice [2],no significant changes
same,Atoh1-induced hair cell conversion (immunostaining Myo6/GFP),"[3]; 100 nM AG1478 vs vehicle, Atoh1-IRES-GFP transfected explants",increased
same,Atoh1-induced HC conversion from explant SCs,"[3]; AG1478 combined with Atoh1, from 24.7% without inhibitor, FIGS. 1A-1D",80.6%
same,impact on the proliferation and differentiation of endogenous SCs and HCs,[4],no impact
"CCOc1cc2ncc(C#N)c(Nc3ccc(F)c(Cl)c3)c2cc1NC(=O)/C=C/CN(C)C [PELITINIB, Pelitinib]",IC50,HEI-OC1 cells [5]; cisplatin-Glo 3/7,600 nM
same,protection of outer hair cells against cisplatin-induced hair cell loss,"mouse cochlear explants [6]; 1 hour pre-incubation, N=3",49%
"FC(F)(F)c1ccc(/C=C/c2nc(COc3ccc(CCCCn4ccnn4)cc3)co2)cc1 [MUBRITINIB, Mubritinib]",protection against cisplatin-induced cell death,HEI-OC1 cells [5],potently protected
same,IC50,HEI-OC1 cells [5],4 nM
same,LD50,HEI-OC1 cells [7],> 55 µM
same,protection against cisplatin-induced hair cell loss,mouse cochlear explants [6],potently protected
same,LD50,mouse cochlear explants [6]; mouse cochlear explants,> 500 nM
same,Therapeutic Index,"mouse cochlear explants [6]; mouse cochlear explants, LD50/IC50",> 200
same,IC50,mouse cochlear explants [8],2.5 nM
O=C(Nc1cccc(Cl)c1)Nc1ncc(CCNc2ncnc3ccsc23)s1 [SNS314],protection against cisplatin-induced cell death,HEI-OC1 cells [5],potently protected
same,protection against cisplatin-induced hair cell loss,mouse cochlear explants [6],potently protected
"CC1(COc2ccc3c(c2)ncn3-c2ccc3cccc(N4CCC(N)CC4)c3n2)COC1 [CRENOLANIB, Crenolanib]",protection against cisplatin-induced cell death,HEI-OC1 cells [5],potently protected
same,protection against cisplatin-induced hair cell loss,mouse cochlear explants [6],potently protected
"CC(C)(C)c1nc(-c2cccc(NS(=O)(=O)c3c(F)cccc3F)c2F)c(-c2ccnc(N)n2)s1 [GSK2118436A, dabrafenib]",protection against cisplatin-induced cell death,HEI-OC1 cells [5],potently protected
same,protection against cisplatin-induced hair cell loss,mouse cochlear explants [6],potently protected
